Measured values from ChEMBL document CHEMBL1201862, “PubChem BioAssay data set” (2004).
The source made the active and inactive calls.

Key:
[1] = target: Vascular endothelial growth factor receptor 2 (Homo sapiens, UniProt P35968); assay type: functional
[2] = target: Mitogen-activated protein kinase 9 (Homo sapiens, UniProt P45984); assay type: functional;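 further: value from a kinome panel profiling assay, MAPK9 panel entry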
[3] = target: Dual specificity tyrosine-phosphorylation-regulated kinase 1A (Homo sapiens, UniProt Q13627); assay type: functional;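 further: measured against DYRK1A as one member of a broad kinome profiling panel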
[4] = target: Serine/threonine-protein kinase pim-1 (Homo sapiens, UniProt P11309); assay type: functional
[5] = target: Cyclin-dependent kinase 7 (Homo sapiens, UniProt P50613); assay type: functional;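 further: value comes from a kinome-wide kinase profiling panel in which CDK7 is one member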
[6] = target: Mitogen-activated protein kinase 14 (Homo sapiens, UniProt Q16539); assay type: functional;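 further: part of a kinome-wide panel, MAPK14 entry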
[7] = target: Platelet-derived growth factor receptor alpha (Homo sapiens, UniProt P16234); assay: Navigating the Kinome. Panel member name: PDGFRA; assay type: functional
[8] = target: Casein kinase I isoform alpha (Homo sapiens, UniProt P48729); assay type: functional
[9] = target: Tyrosine-protein kinase receptor TYRO3 (Homo sapiens, UniProt Q06418); assay type: functional;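 further: TYRO3 value obtained as one member of a kinome-wide profiling panel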
[10] = target: Tyrosine-protein kinase Fyn (Homo sapiens, UniProt P06241); assay type: functional
[11] = target: Mitogen-activated protein kinase 8 (Homo sapiens, UniProt P45983); assay type: functional;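 further: value comes from one member of a kinome-wide kinase profiling panel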
[12] = target: Tyrosine-protein kinase BTK (Homo sapiens, UniProt Q06187); assay type: functional
[13] = target: Dual specificity mitogen-activated protein kinase kinase 2 (Homo sapiens, UniProt P36507); assay: Navigating the Kinome. Panel member name: MAP2K2; assay type: functional
[14] = target: Receptor-type tyrosine-protein kinase FLT3 (Homo sapiens, UniProt P36888); assay type: functional;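 further: FLT3 was tested as one member of a kinome-wide kinase panel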
[15] = target: Serine/threonine-protein kinase TBK1 (Homo sapiens, UniProt Q9UHD2); assay: Navigating the Kinome. Panel member name: TBK1; assay type: functional
[16] = target: 5'-AMP-activated protein kinase catalytic subunit alpha-1 (Homo sapiens, UniProt Q13131); assay type: functional
[17] = target: Calcium/calmodulin-dependent protein kinase type II subunit alpha (Homo sapiens, UniProt Q9UQM7); assay: Navigating the Kinome. Panel member name: CAMK2A; assay type: functional
[18] = target: Cyclin-dependent kinase 8 (Homo sapiens, UniProt P49336); assay: Navigating the Kinome. Panel member name: CDK8; assay type: functional
[19] = target: Macrophage colony-stimulating factor 1 receptor (Homo sapiens, UniProt P07333); assay type: functional;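 further: value comes from the Navigating the Kinome screening panel, CSF1R member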
[20] = target: Leucine-rich repeat serine/threonine-protein kinase 2 (Homo sapiens, UniProt Q5S007); assay type: functional;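 further: value from a broad kinome-wide panel profiling study in which LRRK2 was one of the kinases tested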
[21] = target: Glycogen synthase kinase-3 alpha (Homo sapiens, UniProt P49840); assay type: functional;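 further: GSK3A result taken from a broad kinome-wide kinase panel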
[22] = target: Serine/threonine-protein kinase PAK 4 (Homo sapiens, UniProt O96013); assay type: functional;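 further: value obtained within a kinome profiling panel in which PAK4 was one of the panel members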
[23] = target: Inhibitor of nuclear factor kappa-B kinase subunit epsilon (Homo sapiens, UniProt Q14164); assay: Navigating the Kinome. Panel member name: IKBKE; assay type: functional
[24] = target: Dual specificity protein kinase CLK4 (Homo sapiens, UniProt Q9HAZ1); assay type: functional
[25] = target: Macrophage-stimulating protein receptor (Homo sapiens, UniProt Q04912); assay: Navigating the Kinome. Panel member name: MST1R; assay type: functional
Chain of Macrophage-stimulating protein receptor (Q04912 25-304 limits assumed): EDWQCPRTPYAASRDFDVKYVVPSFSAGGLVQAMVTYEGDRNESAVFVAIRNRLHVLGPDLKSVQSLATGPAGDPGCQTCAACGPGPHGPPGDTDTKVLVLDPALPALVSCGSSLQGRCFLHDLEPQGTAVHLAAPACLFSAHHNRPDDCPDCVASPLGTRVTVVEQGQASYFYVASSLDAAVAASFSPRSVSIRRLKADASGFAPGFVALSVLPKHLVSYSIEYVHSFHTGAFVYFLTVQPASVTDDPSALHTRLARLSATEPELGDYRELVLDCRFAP
Chain of Macrophage-stimulating protein receptor (Q04912 310-1400 limits assumed): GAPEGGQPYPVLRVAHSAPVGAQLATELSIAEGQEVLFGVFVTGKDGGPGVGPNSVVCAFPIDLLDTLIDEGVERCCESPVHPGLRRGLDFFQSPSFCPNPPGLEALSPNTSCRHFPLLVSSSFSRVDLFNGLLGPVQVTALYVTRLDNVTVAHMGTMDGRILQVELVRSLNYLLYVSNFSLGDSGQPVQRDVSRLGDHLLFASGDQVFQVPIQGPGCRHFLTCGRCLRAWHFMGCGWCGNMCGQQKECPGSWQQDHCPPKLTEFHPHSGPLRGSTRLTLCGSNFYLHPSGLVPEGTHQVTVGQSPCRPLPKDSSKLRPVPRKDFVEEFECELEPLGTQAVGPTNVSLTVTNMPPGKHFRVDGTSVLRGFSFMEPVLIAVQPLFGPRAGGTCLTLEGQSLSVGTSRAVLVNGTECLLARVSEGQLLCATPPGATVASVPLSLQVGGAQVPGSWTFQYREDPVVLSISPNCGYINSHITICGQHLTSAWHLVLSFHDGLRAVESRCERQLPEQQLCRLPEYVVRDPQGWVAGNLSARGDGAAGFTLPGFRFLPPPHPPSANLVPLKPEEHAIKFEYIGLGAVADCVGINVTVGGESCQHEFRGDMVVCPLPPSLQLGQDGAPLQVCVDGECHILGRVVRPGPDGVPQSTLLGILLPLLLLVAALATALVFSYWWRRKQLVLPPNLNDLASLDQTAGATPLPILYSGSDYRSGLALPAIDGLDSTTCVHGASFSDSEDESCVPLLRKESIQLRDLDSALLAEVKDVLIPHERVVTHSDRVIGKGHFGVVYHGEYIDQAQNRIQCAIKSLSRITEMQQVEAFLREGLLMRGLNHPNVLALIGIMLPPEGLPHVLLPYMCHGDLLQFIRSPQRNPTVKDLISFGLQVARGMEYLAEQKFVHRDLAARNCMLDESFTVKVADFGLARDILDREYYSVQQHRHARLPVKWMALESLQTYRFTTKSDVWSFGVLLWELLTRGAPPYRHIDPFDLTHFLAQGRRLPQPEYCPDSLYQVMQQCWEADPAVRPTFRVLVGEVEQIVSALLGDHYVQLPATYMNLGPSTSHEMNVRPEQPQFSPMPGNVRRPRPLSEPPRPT

[26] = target: cAMP-dependent protein kinase catalytic subunit alpha (Homo sapiens, UniProt P17612); assay type: functional
[27] = target: Glycogen synthase kinase-3 beta (Homo sapiens, UniProt P49841); assay type: functional;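 further: value comes from a broad kinome profiling panel, with GSK3B as the panel member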
[28] = target: Death-associated protein kinase 3 (Homo sapiens, UniProt O43293); assay type: functional;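 further: measured as one member of a kinome-wide profiling panel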
[29] = target: Dual specificity mitogen-activated protein kinase kinase 1 (Homo sapiens, UniProt Q02750); assay: Navigating the Kinome. Panel member name: MAP2K1; assay type: functional
[30] = target: Ribosomal protein S6 kinase alpha-3 (Homo sapiens, UniProt P51812); assay type: functional;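 further: measured within a kinome-wide profiling panel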
[31] = target: Serine/threonine-protein kinase TAO1 (Homo sapiens, UniProt Q7L7X3); assay type: functional
Activin receptor type-1 = Activin receptor type-1 (Homo sapiens, UniProt Q04771); assay: Navigating the Kinome. Panel member name: ACVR1; assay type: functional
Activated CDC42 kinase 1 = Activated CDC42 kinase 1 (Homo sapiens, UniProt Q07912); assay: Navigating the Kinome. Panel member name: ACK1; assay type: functional
Focal adhesion kinase 1 = Focal adhesion kinase 1 (Homo sapiens, UniProt Q05397); assay type: functional;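 further: measured as one member of a kinome panel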
[32] = target: G protein-coupled receptor kinase 5 (Homo sapiens, UniProt P34947); assay: Navigating the Kinome. Panel member name: GPRK5; assay type: functional
[33] = target: cAMP-dependent protein kinase catalytic subunit PRKX (Homo sapiens, UniProt P51817); assay type: functional
[34] = target: Tyrosine-protein kinase Lck (Homo sapiens, UniProt P06239); assay type: functional;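 further: lck was assayed as one member of a kinase panel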
[35] = target: Hepatocyte growth factor receptor (Homo sapiens, UniProt P08581); assay type: functional;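 further: kinase panel profiling across the kinome, with MET as the panel member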
[36] = target: Mitogen-activated protein kinase kinase kinase kinase 4 (Homo sapiens, UniProt O95819); assay type: functional
Chain of Mitogen-activated protein kinase kinase kinase kinase 4 (O95819 whole entry): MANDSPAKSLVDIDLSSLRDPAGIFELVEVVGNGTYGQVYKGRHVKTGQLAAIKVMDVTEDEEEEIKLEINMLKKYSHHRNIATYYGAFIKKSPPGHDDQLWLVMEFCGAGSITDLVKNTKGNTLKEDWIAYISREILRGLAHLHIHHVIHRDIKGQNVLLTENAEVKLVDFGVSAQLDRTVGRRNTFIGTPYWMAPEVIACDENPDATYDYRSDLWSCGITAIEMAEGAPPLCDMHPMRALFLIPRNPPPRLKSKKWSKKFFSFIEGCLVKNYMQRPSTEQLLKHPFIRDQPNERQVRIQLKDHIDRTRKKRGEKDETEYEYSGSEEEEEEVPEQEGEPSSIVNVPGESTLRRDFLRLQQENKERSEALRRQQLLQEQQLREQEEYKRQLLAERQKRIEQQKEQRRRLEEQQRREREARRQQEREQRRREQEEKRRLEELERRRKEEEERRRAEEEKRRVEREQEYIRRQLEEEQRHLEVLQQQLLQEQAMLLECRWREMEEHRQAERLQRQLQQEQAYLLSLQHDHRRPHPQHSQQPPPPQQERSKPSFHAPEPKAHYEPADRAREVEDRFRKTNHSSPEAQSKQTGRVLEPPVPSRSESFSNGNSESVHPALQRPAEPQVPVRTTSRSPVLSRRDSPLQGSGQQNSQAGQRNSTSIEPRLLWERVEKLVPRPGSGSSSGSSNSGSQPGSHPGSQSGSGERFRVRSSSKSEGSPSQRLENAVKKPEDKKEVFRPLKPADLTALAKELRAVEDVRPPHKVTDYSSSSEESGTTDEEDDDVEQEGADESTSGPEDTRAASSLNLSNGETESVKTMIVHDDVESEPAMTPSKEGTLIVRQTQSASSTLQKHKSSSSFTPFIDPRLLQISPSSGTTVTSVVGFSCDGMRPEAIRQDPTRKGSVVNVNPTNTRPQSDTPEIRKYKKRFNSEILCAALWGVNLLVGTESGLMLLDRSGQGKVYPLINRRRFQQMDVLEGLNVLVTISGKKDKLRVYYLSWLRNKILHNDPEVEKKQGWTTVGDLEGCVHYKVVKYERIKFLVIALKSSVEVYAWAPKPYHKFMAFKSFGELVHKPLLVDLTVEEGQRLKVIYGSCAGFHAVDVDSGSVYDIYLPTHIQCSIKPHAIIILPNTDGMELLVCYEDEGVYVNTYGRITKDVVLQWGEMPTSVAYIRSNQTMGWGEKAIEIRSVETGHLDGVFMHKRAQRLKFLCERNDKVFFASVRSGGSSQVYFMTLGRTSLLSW

[37] = target: BDNF/NT-3 growth factors receptor (Homo sapiens, UniProt Q16620); assay type: functional;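 further: NTRK2 measured as one member of a broad kinome-wide kinase profiling panel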
[38] = target: Insulin-like growth factor 1 receptor (Homo sapiens, UniProt P08069); assay: Navigating the Kinome. Panel member name: IGF1R; assay type: functional
[39] = target: Leukocyte tyrosine kinase receptor (Homo sapiens, UniProt P29376); assay: Navigating the Kinome. Panel member name: LTK; assay type: functional
[40] = target: Tyrosine-protein kinase JAK2 (Homo sapiens, UniProt O60674); assay type: functional;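 further: JAK2 tested as one member of a kinase panel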
[41] = target: Vascular endothelial growth factor receptor 1 (Homo sapiens, UniProt P17948); assay type: functional;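 further: measured within a kinome-wide profiling panel, FLT1 as the panel member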
[42] = target: Serine/threonine-protein kinase D3 (Homo sapiens, UniProt O94806); assay type: functional;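 further: determined within a kinase panel screen, with PRKCN as the panel member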
[43] = target: Fibroblast growth factor receptor 1 (Homo sapiens, UniProt P11362); assay type: functional
[44] = target: Proto-oncogene tyrosine-protein kinase receptor Ret (Homo sapiens, UniProt P07949); assay type: functional;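 further: measured within a kinome-wide profiling panel, RET as the panel member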
[45] = target: Tyrosine-protein kinase JAK3 (Homo sapiens, UniProt P52333); assay type: functional
Chain of Tyrosine-protein kinase JAK3 (P52333 whole entry): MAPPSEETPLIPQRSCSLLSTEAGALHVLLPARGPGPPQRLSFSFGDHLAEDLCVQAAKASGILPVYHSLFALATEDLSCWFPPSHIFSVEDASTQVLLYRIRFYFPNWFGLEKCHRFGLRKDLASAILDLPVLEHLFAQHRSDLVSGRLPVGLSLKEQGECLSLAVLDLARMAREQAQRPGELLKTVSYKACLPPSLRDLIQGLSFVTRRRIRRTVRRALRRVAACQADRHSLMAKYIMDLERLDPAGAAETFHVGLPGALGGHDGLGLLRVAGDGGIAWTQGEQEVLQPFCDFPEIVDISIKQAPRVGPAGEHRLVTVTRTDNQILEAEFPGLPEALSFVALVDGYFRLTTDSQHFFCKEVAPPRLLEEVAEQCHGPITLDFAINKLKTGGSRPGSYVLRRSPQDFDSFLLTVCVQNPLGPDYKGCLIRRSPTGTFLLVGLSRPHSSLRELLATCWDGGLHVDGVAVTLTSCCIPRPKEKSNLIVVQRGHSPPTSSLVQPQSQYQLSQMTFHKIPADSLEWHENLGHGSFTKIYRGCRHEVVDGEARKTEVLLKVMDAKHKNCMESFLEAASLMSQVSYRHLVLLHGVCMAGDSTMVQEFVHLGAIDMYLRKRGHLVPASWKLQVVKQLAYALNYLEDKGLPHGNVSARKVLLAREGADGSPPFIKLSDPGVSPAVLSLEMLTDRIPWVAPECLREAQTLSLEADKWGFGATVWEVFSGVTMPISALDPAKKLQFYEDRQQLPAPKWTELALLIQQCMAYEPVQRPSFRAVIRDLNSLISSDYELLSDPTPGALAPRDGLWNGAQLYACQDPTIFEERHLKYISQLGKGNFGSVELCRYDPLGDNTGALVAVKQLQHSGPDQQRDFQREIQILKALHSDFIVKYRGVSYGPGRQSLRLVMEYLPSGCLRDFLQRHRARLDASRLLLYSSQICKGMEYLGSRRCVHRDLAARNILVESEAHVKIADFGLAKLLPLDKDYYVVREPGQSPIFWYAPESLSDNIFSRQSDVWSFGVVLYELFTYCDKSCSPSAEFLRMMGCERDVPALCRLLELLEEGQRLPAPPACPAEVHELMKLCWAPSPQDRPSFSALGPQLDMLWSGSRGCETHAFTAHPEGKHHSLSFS

[46] = target: ALK tyrosine kinase receptor (Homo sapiens, UniProt Q9UM73); assay type: functional;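 further: ALK tested as one member of a kinase panel screen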
[47] = target: Dual specificity protein kinase CLK2 (Homo sapiens, UniProt P49760); assay type: functional
[48] = target: Rho-associated protein kinase 1 (Homo sapiens, UniProt Q13464); assay type: functional;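 further: measured within a broad kinome-wide panel profiling many kinases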
[49] = target: Mitogen-activated protein kinase kinase kinase kinase 2 (Homo sapiens, UniProt Q12851); assay type: functional;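 further: measured as one member of a kinome-wide kinase panel, with MAP4K2 as the panel entry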
[50] = target: Dual specificity tyrosine-phosphorylation-regulated kinase 1B (Homo sapiens, UniProt Q9Y463); assay: Navigating the Kinome. Panel member name: DYRK1B; assay type: functional
[51] = target: Protein kinase C theta type (Homo sapiens, UniProt Q04759); assay: Navigating the Kinome. Panel member name: PRKCQ; assay type: functional
[52] = target: Cyclin-dependent kinase 19 (Homo sapiens, UniProt Q9BWU1); assay: Navigating the Kinome. Panel member name: CDC2L6; assay type: functional
[53] = target: Cell division cycle 7-related protein kinase (Homo sapiens, UniProt O00311); assay type: functional;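 further: value obtained from a kinome-wide kinase panel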
Chain of Cell division cycle 7-related protein kinase (O00311 whole entry): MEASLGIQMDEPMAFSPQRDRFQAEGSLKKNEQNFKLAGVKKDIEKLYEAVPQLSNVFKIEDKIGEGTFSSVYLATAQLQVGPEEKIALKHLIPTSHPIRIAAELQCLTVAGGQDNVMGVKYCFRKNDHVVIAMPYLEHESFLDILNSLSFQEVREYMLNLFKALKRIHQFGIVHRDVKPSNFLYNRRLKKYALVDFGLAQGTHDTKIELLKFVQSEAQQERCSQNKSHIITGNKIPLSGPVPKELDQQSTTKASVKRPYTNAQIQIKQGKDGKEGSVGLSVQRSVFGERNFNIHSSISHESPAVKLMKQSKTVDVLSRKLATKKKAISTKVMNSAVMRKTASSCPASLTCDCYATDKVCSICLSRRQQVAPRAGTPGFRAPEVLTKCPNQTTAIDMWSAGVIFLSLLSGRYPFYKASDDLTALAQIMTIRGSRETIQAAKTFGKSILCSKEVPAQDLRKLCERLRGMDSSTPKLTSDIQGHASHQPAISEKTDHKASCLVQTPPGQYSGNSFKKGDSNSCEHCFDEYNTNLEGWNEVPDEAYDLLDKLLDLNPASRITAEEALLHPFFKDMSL

[54] = target: Lymphokine-activated killer T-cell-originated protein kinase (Homo sapiens, UniProt Q96KB5); assay type: functional;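 further: value comes from a kinase panel screen in which TOPK was one of the panel members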
Chain of Lymphokine-activated killer T-cell-originated protein kinase (Q96KB5 whole entry): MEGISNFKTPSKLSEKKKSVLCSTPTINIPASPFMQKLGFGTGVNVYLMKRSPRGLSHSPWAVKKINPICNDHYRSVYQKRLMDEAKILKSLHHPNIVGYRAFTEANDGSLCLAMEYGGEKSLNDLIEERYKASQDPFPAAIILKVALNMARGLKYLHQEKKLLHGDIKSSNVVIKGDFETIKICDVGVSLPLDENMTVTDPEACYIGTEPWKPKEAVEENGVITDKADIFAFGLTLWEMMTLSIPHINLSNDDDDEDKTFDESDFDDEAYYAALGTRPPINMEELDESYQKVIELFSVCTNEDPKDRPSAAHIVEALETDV

[55] = target: MAP kinase-activated protein kinase 3 (Homo sapiens, UniProt Q16644); assay type: functional;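 further: value comes from a kinome-wide profiling panel in which MAPKAPK3 is one of the panel members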
[56] = target: Protein kinase C gamma type (Homo sapiens, UniProt P05129); assay type: functional
[57] = target: Cyclin-dependent kinase 1 (Homo sapiens, UniProt P06493); assay type: functional;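 further: Kinome-wide panel profiling, with the target listed as panel member CDC2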
[58] = target: Protein kinase C zeta type (Homo sapiens, UniProt Q05513); assay type: functional;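 further: measured as one member of a broad kinase profiling panel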
Cytochrome P450 3A4 = Cytochrome P450 3A4 (Homo sapiens, UniProt P08684); conditions: Potency;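 further: confirmatory qHTS run detecting inhibitors and substrates of CYP3A4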
Misshapen-like kinase 1 = Misshapen-like kinase 1 (Homo sapiens, UniProt Q8N4C8); assay type: functional;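 further: kinome panel screen with MINK as the panel member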
[59] = target: MAP kinase-activated protein kinase 2 (Homo sapiens, UniProt P49137); assay type: functional;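 further: measured as one member of a kinome-wide kinase panel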
[60] = target: Serine/threonine-protein kinase pim-3 (Homo sapiens, UniProt Q86V86); assay type: functional;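 further: value obtained as one member of a broad kinase panel profiling effort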
[61] = target: T1, Botulinum neurotoxin type A (Clostridium botulinum (strain Hall / ATCC 3502 / NCTC 13319 / Type A), UniProt P0DPI1); assay: High-throughput multiplex microsphere dose response for inhibitors of toxin protease, specifically Botulinum neurotoxin light chain A protease, compounds from Powder Set 01.; assay type: functional, Clostridium botulinum A str. ATCC 3502; conditions: read-out: EC50_MICROM
T1 sequence (P0DPI1 2-448 limits assumed): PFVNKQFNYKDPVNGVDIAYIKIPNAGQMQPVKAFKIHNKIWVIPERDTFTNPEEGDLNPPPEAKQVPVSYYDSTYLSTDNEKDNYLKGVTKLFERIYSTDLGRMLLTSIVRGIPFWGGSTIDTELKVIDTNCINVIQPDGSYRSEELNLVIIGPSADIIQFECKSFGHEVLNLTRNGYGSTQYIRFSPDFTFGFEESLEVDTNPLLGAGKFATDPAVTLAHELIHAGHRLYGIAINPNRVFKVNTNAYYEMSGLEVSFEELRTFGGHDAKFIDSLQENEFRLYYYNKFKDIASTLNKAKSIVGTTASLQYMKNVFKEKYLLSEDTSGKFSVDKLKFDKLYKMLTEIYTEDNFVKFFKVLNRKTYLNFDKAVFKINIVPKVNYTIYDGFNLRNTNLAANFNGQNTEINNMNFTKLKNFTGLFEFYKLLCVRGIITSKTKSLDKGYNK

[62] = target: T1, Botulinum neurotoxin type A; assay: Confirmatory FRET assay using full length substrates for Botulinum neurotoxin light chain A protease, with Powder Set01.; assay type: functional
Lethal factor = Lethal factor (Bacillus anthracis, UniProt P15917); assay: High-throughput multiplex microsphere dose response for inhibitors of toxin protease, specifically Lethal Factor protease, compounds from Powder Set 01.; assay type: functional, Bacillus anthracis str. A2012; conditions: read-out: EC50_MICROM
[63] = target: T1, Botulinum neurotoxin type A; assay: High-throughput multiplex microsphere dose response for inhibitors of toxin protease, specifically Botulinum neurotoxin light chain A protease, compounds from Cherry Pick 01.; assay type: functional; conditions: read-out: EC50_MICROM

CC(C)Oc1cc(Nc2nc(NC(C)c3ccc(F)cn3)ncc2Cl)n[nH]1 (stereo not given)
active: Ki [1] 0.501 µM | Ki [5] 0.316 µM | Ki [8] 1 µM | Ki [10] 0.398 µM | Ki [12] 1 µM | Ki [14] 0.316 µM | Ki [16] 0.158 µM | Ki [17] 0.316 µM | Ki [20] 1 µM | Ki [24] 0.501 µM | Ki [25] 0.2 µM | Ki [31] 2.51 µM | Ki (Activin receptor type-1) 1.58 µM | Ki (Activated CDC42 kinase 1) 0.0251 µM | Ki (Focal adhesion kinase 1) 0.0316 µM | Ki [34] 0.398 µM | Ki [37] 0.001 µM | Ki [38] 1.26 µM | Ki [39] 0.0316 µM | Ki [40] 0.1 µM | Ki [41] 1.58 µM | Ki [43] 0.0251 µM | Ki [44] 0.0398 µM | Ki [45] 2 µM | Ki [46] 0.126 µM | Ki [47] 2.51 µM | Ki [48] 2 µM | Ki [51] 0.501 µM
inactive: Ki [2] > 3.98 µM | Ki [3] > 2 µM | Ki [4] > 6.31 µM | Ki [6] > 3.98 µM | Ki [7] > 2.51 µM | Ki [9] > 3.16 µM | Ki [11] > 5.01 µM | Ki [13] > 3.98 µM | Ki [15] > 3.16 µM | Ki [18] > 3.98 µM | Ki [19] > 2.51 µM | Ki [21] > 3.98 µM | Ki [22] > 5.01 µM | Ki [23] > 3.16 µM | Ki [26] > 1.26 µM | Ki [27] > 3.98 µM | Ki [28] > 5.01 µM | Ki [29] > 3.16 µM | Ki [30] > 3.98 µM | Ki [32] > 3.98 µM | Ki [33] > 3.16 µM | Ki [35] > 2.51 µM | Ki [36] > 5.01 µM | Ki [42] > 3.98 µM | Ki [49] > 2.51 µM | Ki [50] > 2.51 µM

Cn1ncc2cc(Nc3ccnc(N)n3)ccc21
active: Ki [53] 0.398 µM
inactive: Ki [52] > 100 µM

Oc1cccc(-c2nc(N3CCOCC3)c3oc4ncccc4c3n2)c1 [PI-103]
inactive: Ki [54] > 10 µM | Ki [55] > 10 µM | Ki [56] > 7.94 µM | Ki [57] > 7.94 µM | Ki [58] > 7.94 µM

Oc1ccc(Nc2nc(-c3ccc(Cl)cc3)cs2)cc1
active: Ki (Misshapen-like kinase 1) 2.51 µM | Ki [36] 1 µM | Ki [59] 7.94 µM | Ki [60] 3.16 µM
inconclusive: AC50 (Cytochrome P450 3A4) 25.1 µM

O=C(Nc1ccc2nc(-c3cccs3)c(-c3cccs3)nc2c1)NC1CC1
active: EC50 [61] 1.5 µM | EC50 [62] 0.6 µM | EC50 (Lethal factor) 1.6 µM | EC50 [63] 12.3 µM
